# From PubChem BioAssay AID179 (DTP/NCI, 2004)
# “And” between values parts separate entries of the source, which are not always exact repeats. Equal entries are not always repeated. The source made the active and inactive calls.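 How the source made its calls: active means compounds giving half or more protection of infected cells from virus-caused growth loss, again on retest; inactive means the rest.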
# Tested on: CEM cells HIV-1 protection, formazan growth assay
# Assay: NCI AIDS Antiviral Assay
# Conditions: for IC50: measured here: growth of uninfected CEM cells
# Description: The ability of compounds to protect human CEM cells from HIV-1 infection is measured as a screen for new compounds capable of inhibiting the HIV virus. Five concentrations of drug were tested on uninfected and infected cells and cell growth was measured using a soluble formazan assay. […] Compounds that provided at least 50% protection were retested. Compounds that provided at least 50% protection on retest were listed as moderately active. Compounds that reproducibly provided 100% protection were listed as confirmed active. […] Note that the inability to provide protection could be due to toxicity.
SMILES,outcome,EC50,IC50
COc1ccc(-c2sc(/N=C/c3cc(Br)cc(Br)c3O)c(C#N)c2C)cc1OC,inactive,,
Cc1csc(/N=C\c2c(O)c3ccccc3oc2=O)n1,,> 200 µM,36.3 µM
N#Cc1c(O)c(C=Nc2ccc(Cl)cc2)c(=O)n2c1[nH]c1ccccc12,,> 100 µM,> 100 µM
C1=CC2=CC=CC3c4nc5ccc6ccccc6c5nc4C(=C1)C23 (centres undefined),,> 200 µM,> 200 µM
Cc1cc2c(c(C=Nc3ccc([N+](=O)[O-])cc3)c1)OC1(C=C2)Oc2ccccc2C(=O)N1C (centres undefined),,> 200 µM,22.9 µM
CCCOc1cnc([C@H]2CCC3[C@@H]4CC=C5C[C@@H](OC(=O)CCC(=O)O)CC[C@]5(C)C4CC[C@@]32C)s1 (some centres undefined),,> 47.9 µM,19.1 µM
N/N=C(/Cc1ccccc1)NNO,,> 525 µM,174 µM
Nc1n[n+]([O-])c2cnccc2[n+]1[O-],,> 200 µM,70.8 µM
CCOC(=O)NC(=O)c1cn(CCSCCOC(=O)NCCCCCCNC(=O)OCCSCCn2cc(C(=O)NC(=O)OCC)c(=O)[nH]c2=O)c(=O)[nH]c1=O,inactive,,
Nc1nc(Nc2ccc(Cl)c(Cl)c2)c(N=O)c(=O)[nH]1,,> 200 µM,3.72 µM
CC(=O)OC(CC1(C)C(C)CCC23COC(=O)C2=CCCC31)C1=CC(=O)OC1O (centres undefined),,> 447 µM,> 447 µM
CCCCC1(CCO)C(=O)NC(=S)NC1=O,,> 200 µM,> 200 µM
COC(=O)C(=O)C(C(=O)C(=O)Nc1cc(Cl)c(Cl)cc1Cl)c1nc2ccc([N+](=O)[O-])cc2[nH]c1=O (centres undefined),,> 457 µM,95.5 µM
CCC(C)c1c(NC(C)=O)o[nH]c1=O (centres undefined),,> 200 µM,> 200 µM
N#CC(c1ccccc1)N(CCOCCOCCN(C(=O)c1cccc2ccccc12)C(C#N)c1ccccc1)C(=O)c1cccc2ccccc12 (centres undefined),,> 200 µM,13.2 µM
COC1N(C2CC(F)C(CO)O2)C(=O)NC(=O)C1(C)Cl (centres undefined),,14.5 µM and 25.1 µM,794 µM
COc1ccc(C2=C(c3ccccc3)C(=O)C(c3ccccc3)=C2c2ccccc2)cc1,inactive,,
C#CCN(Cc1ccc2nc(-c3ccccc3)c(N)nc2c1)c1cc(OC)c(OC)c(OC)c1,,> 21.9 µM,> 21.9 µM
CCOC(=O)CN(c1sc(C)c(CC)c1C(=O)OCC)S(=O)(=O)c1ccc(C)cc1,,> 200 µM,10.2 µM
CCOC(=O)CON=c1c2ccccc2ccc2ccccc12,,> 200 µM,> 200 µM
O=[N+]([O-])c1cc(S(=O)(=O)c2ccc(O)c([N+](=O)[O-])c2)ccc1O,,> 200 µM,> 100 µM
C1CCC(N2CSCSC2)CC1,,> 200 µM,107 µM

SMILES,outcome,EC50,IC50
Cn1c2ccccc2c2n[nH]c(=S)nc21,,55 µM,> 200 µM
CCCCCCCCCCCCCCCCCCNC(=S)/N=C\C(C(=O)Nc1ccccc1C)=C(/C)O,,> 200 µM,115 µM
CC1(C)CC(N(C(=O)/C=C/c2ccc([N+](=O)[O-])o2)C2CCCCC2)CC(C)(C)N1,,> 32.4 µM,17.4 µM
COc1ccc(-c2cn3c([nH]c(=O)c4cc(Br)ccc43)c2C#N)cc1,,> 200 µM,182 µM
Cn1c(SSc2ccc(-c3cccnc3)n2C)ccc1-c1cccnc1,,> 200 µM,1.86 µM and 2.45 µM
CCCCC(CC)COS(=O)(=O)O (centres undefined),,145 µM,> 200 µM
Cc1nc2ccccc2c(=O)n1-c1ccccc1F,,> 708 µM,437 µM
Clc1ccc(N=c2ccc3ccccc3[oH+]2)cc1.Clc1ccc(N=c2ccc3ccccc3[oH+]2)cc1.[Ni],inactive,,
O=[N+]([O-])c1c(C=Nc2ccccc2)oc(-c2c(O)ccc3ccccc23)c1-c1c(O)ccc2ccccc12,,> 200 µM,31.6 µM
COc1cccc(C=C2C(=O)NC(=O)NC2=O)c1,,> 145 µM,> 145 µM
COC(=O)[C@H](C)N(C)C(=O)[C@H](C)N1[C@@H](c2ccccc2)COC1(C)C,,> 200 µM,> 200 µM
N#Cc1ccc(OCCSCCCCCCCCCCSCCOc2ccc(C#N)cc2)cc1,,> 2.88 µM,> 2.88 µM
OC1(O)/C=C\CCCCC/C=C\1,,> 200 µM,129 µM
COc1cc2c(c3oc(=O)c4c(c13)CCC4=O)[C@@H]1C=CO[C@@H]1O2,,> 100 µM,69.2 µM
O=C(/C=C/c1ccc(O)cc1)CC(=O)/C=C/c1ccc(O)cc1,,> 200 µM,9.55 µM
Clc1cc2c(c(CSc3nc4ccccc4n4cccc34)c1)OCOC2,,> 13.5 µM,> 13.5 µM
O=c1[nH]c2ncccc2c(=O)n1OS(=O)(=O)c1ccccc1,,> 200 µM,135 µM
COc1cccc(/C=C(/C(C)=O)C(=O)c2ccccc2)c1,inactive,,
Cc1ccc(C(=O)O)c(/C=C2\Cc3ccc(C)cc3C2=O)c1,,> 200 µM,97.7 µM
COc1cc2oc3cc(OC)c(OC)c(CC=C(C)C)c3c(=O)c2c(O)c1CC=C(C)C,,> 30.9 µM,> 30.9 µM
COc1cc2oc(=O)cc(C)c2c(OC)c1OC,,> 200 µM,> 200 µM
NC(N)=N/N=C/c1c(-c2ccc(Cl)c(Cl)c2Cl)nc2sccn12,,0.191 µM,1.07 µM

SMILES,outcome,EC50,IC50
O=C1C[C@H](c2ccccc2)C2(C(=O)c3ccccc3C2=O)[C@@H](c2ccccc2)C1,,51.3 µM,102 µM
O=C(SSC(=O)c1ccccc1)c1ccccc1,,> 200 µM,22.4 µM
Cc1nc2c(O)ccc(O)c2nc1C,,> 200 µM,17.8 µM
COC(=O)/C=C1\C(=O)N(C(C)=O)c2ccccc21,,> 200 µM,3.31 µM
CN=C(/N=c1\ssc(=NC)n1C)N(C)C,,> 70.8 µM,50.1 µM
N#CCCC1C(=O)CCCC1=O,,> 200 µM,> 200 µM
Cc1c(=O)n(O)c2ccccc2[n+]1[O-],,> 200 µM,> 200 µM
O=c1ccc2ccccc2o1,,> 1700 µM,1410 µM
[B-][N+]1(C)CC[N+]([B-])(C)CC1 (centres undefined),,> 200 µM,> 200 µM
Cc1cc(Cl)ccc1NC(=O)CCCC(=O)C1CCCC1=O (centres undefined),inactive,,
N#C/C(=C\c1ccccc1Br)C(=O)c1ccccc1,,> 32.4 µM,> 32.4 µM
[O-]/N=[N+](/[O-])C1CCCCC1=[N+]1CCOCC1 (centres undefined),,> 200 µM,32.4 µM
NC(=N\N=C/c1ccc(Cl)cc1Cl)/C(N)=N\N=C/c1ccc(Cl)cc1Cl,inactive,,
Cn1c(=O)n2n(c1=O)C1C(=CC2)C2C=CC1n1c(=O)n(C)c(=O)n12 (centres undefined),,> 200 µM,> 200 µM
CC1(C)C(=O)N2CCSC21 (centres undefined),,> 16.6 µM,> 16.6 µM
Cc1cc2oc3ccccc3c(=O)c2c(C)c1Cl,,> 28.2 µM,> 28.2 µM
c1cc(C[S+]2CCCC2)oc1C[S+]1CCCC1,,> 200 µM,102 µM
C=CC[C@@]12CCC(=O)C=C1CCCC2=O,inactive,,
O=C(N/C(=C\c1ccc2c(c1)OCO2)c1nc2ccccc2[nH]1)c1ccccc1,,> 26.3 µM,> 26.3 µM
Nc1ccc(-c2cc(C(=O)Nc3nccs3)[nH]c(=S)n2)cc1,,> 759 µM,407 µM
COC12CC(=O)C(C(C)=O)=C(O)C1(C)c1c(OC(C)=O)c(C)c(O)c(C(C)=O)c1O2 (centres undefined),,> 603 µM,10.7 µM
CCOC(=O)/C(=C\c1cccc(Br)c1)C(C)=O,,> 229 µM,47.9 µM

SMILES,outcome,EC50,IC50
CCCCCCCCCC(=O)OCC1OC(n2cc(F)c(=O)[nH]c2=O)C(N)C(OC(=O)CCCCCCCCC)C1O (centres undefined),,> 31.6 µM,> 31.6 µM
COc1ccc(C2=C(OC(C)=O)c3cccn3-c3ccccc3S2)cc1,,> 200 µM,1.32 µM
C[S+](C)c1ccccc1NC(C)(C)C,,> 776 µM,490 µM
S=c1[nH]c2ccccc2o1,,> 200 µM,166 µM
Cn1cnc(/C=C/C#N)c1,,> 200 µM,> 200 µM
COc1ccc(/C=C(\C2=NC(=O)CS2)c2nc3ccccc3[nH]2)cc1,,> 20.9 µM,> 20.9 µM
CCOC(=O)c1ccccc1NC(=O)CN(CC)CC,,> 200 µM,> 200 µM
O=C(CC(O)(C(F)(F)F)C(F)(F)Cl)CC(O)(C(F)(F)F)C(F)(F)Cl (centres undefined),inactive,,
Cc1ccc2nc(N/N=C/c3sccc3C)cc(C)c2c1,,> 200 µM,49 µM
Cc1nc2c(ncn2CCO)c(=O)[nH]1,,> 200 µM,> 200 µM
O=C(Nc1ccc(/C=C/c2ccc(NC(=O)c3cc(S(=O)(=O)O)ccc3O)cc2S(=O)(=O)O)c(S(=O)(=O)O)c1)c1cc(S(=O)(=O)O)ccc1O,,93.3 µM,> 200 µM
CN1C(=O)C(O)C[C@@H]1c1ccccc1 (some centres undefined),inactive,,
O=C(NC1C=Nc2ccc([N+](=O)[O-])cc2NC1=O)c1cc(Cl)cc([N+](=O)[O-])c1 (centres undefined),,> 447 µM,155 µM
CN(C)c1ccc(/C=C(\C#N)c2ccccc2Cl)cc1,,> 15.8 µM,4.47 µM
CN1C(CC(O)(c2ccccc2)c2ccccc2)CCCC1CC(O)(c1ccccc1)c1ccccc1 (centres undefined),,> 200 µM,57.5 µM
O=P(O)(CN1CCN(CP(=O)(O)c2ccccc2)CCN(CP(=O)(O)c2ccccc2)CC1)c1ccccc1,,> 200 µM,4.07 µM
C1CSCCCSCCCSCCCSC1,,> 33.9 µM,> 33.9 µM
CC1N=C(SCC(=O)c2ccc(F)cc2)N2C(C)N=C(SCC(=O)c3ccc(F)cc3)N12 (centres undefined),,> 75.9 µM,> 75.9 µM
CC(=O)NC1(C)C2CCC3(C)N=C(C)C1CC3C2 (centres undefined),inactive,,
COC(=O)C1CCCN1C(=O)C(Cc1cn(S(=O)(=O)c2ccc(C)cc2)cn1)NC(=O)OC(C)(C)C (centres undefined),,> 200 µM,> 200 µM
C=C(C)C1CC(=O)C(C)=C(O)C1 (centres undefined),inactive,,
Cc1cc(NS(=O)(=O)c2ccc(Nc3c4ccccc4nc4c(C(=O)N5CCN(CCOS(C)(=O)=O)CC5)cccc34)cc2)no1,,> 44.7 µM,> 44.7 µM
